row,Compound,melting point
1,CCO[C@@H](Cc1ccc(-c2nc([N+](=O)[O-])nn2C)cc1)C(=O)OC,119 °C
2,COc1ccc2[nH]cc(CCCCN3CC=C(c4cccs4)CC3)c2c1,158 °C
3,Clc1cccc(C2CCN(CCCCOc3ccc4scnc4c3)CC2)c1Cl,79 to 81 °C
4,CCCCc1nc2cccc(C(=O)O)c2n1Cc1ccc2nc(-c3ccccc3-c3nnn[nH]3)ncc2c1,188 to 191 °C
5,CN(Cc1cc(C(F)(F)F)cc(C(F)(F)F)c1)C(=O)c1nc(Cl)c2ccccc2c1-c1ccccc1,176 to 177 °C
6,Nc1cc(-c2ccncc2)cc2nc(-c3ccccc3)nn12,207 to 210 °C
7,COc1ccc(Cl)cc1-c1c(Sc2ccncc2)c(=O)[nH]c2ccc(C(F)(F)F)cc12,257 to 260 °C
8,Brc1cccc(Nc2nc(OCC3CCCCC3)c3[nH]cnc3n2)c1,204 to 207 °C
9,CSc1ccc(-c2nn(CC=Cc3ccc(Cl)cc3)c(=O)cc2-c2ccc(F)cc2)cc1,119 °C
10,CSc1nccc(-c2c3cccnc3n3c(NC(C)=O)nccc23)n1,160 to 162 °C
11,O=C1N(Cc2ccc(C(F)F)o2)c2ccccc2C12COc1cc3c(cc12)OCCO3 (stereo not drawn),173 to 175 °C
12,CCCCCCCCCCCCCCOc1ccc(OC(=O)N(C)Cc2ccccn2)cc1,67 to 68 °C
13,CN1CCCN(Cc2nc3ccccc3[nH]2)CC1,152 to 155 °C
14,Cc1ccc(-c2nc(Oc3ccccc3)nc(-c3ccc(C)cc3C)n2)c(C)c1,96 to 98 °C
15,CCCCCCCCCCCCS(=O)(=O)Nc1cc(-c2nc3cc(Cl)c(Cl)cc3[nH]2)ccc1OC,203 to 204 °C
16,COc1ccc(CC(C(O)CCC(C#N)(c2ccc(OC)c(OC)c2)C(C)C)[N+](=O)[O-])cc1OC (stereo not drawn),171 to 173 °C
17,O=C(Cl)N1CCC1Oc1ccc(C(F)(F)F)cc1Cl (stereo not drawn),86 to 88 °C
18,CCOc1ccccc1CNc1nc(N)n2nc(-c3ccco3)nc2n1,243 to 246 °C
19,Cc1cnc2c(Br)c(NC3=NCCN3)ccc2n1,260 °C
20,CC(C)C(CNC(=O)OCc1ccccc1)C(=O)O (stereo not drawn),75.5 to 78.5 °C
21,Cc1cccc2c1CCn1ncnc1C2=C1CCN(C)CC1,150 °C
22,C=CCn1c(-c2cccc(Cl)c2[N+](=O)[O-])nc2ccccc21,148 to 150 °C
23,Nc1cc(N2CCCC2=O)c(Cl)cc1Cl,168 to 170 °C
24,CN1C(=O)CC[C@]2(C)c3ccc(-c4cc5ccccc5c5ccccc45)cc3CC[C@@H]12,218 to 220 °C
25,COC(=O)c1ccc(C(=O)C#Cc2cc(-c3cccs3)c(OC)cc2OC)cc1,198 to 200 °C

row,Compound,melting point
1,Cn1ccc2ccc(N3Cc4c(cccc4[N+](=O)[O-])C3=O)cc21,225 to 262 °C
2,CCOC(=O)[C@H](CSCc1ccccc1)NC(=O)C(C)(C)NC(=O)[C@@H](S)C(C)C,87 to 91 °C
3,CC(C)NC(=O)C(Cc1ccccc1)NC(=O)Nc1n[nH]c(=S)s1 (stereo not drawn),206 to 211 °C
4,CCCCCN(Cc1ccc(-c2ccccc2S(=O)(=O)NC(C)(C)C)cc1)C(=O)Cl,125 to 126 °C
5,CC(C)(C)OC(=O)N[C@@H]1CCC[C@@H]1O (relative stereo),64 to 65 °C
6,CCCc1c(OCCCS(=O)(=O)c2c(C(C)C)nn3ccccc23)ccc(C(C)=O)c1O,170 °C
7,CO[C@@H](C)CNC(=O)c1c[nH]c2ncc(-c3nn(C)c4cc(F)ccc34)nc12,269 to 271 °C
8,CC1=C(c2ccccc2)C(c2ccccc2Cl)C([N+](=O)[O-])=C(C)N1 (stereo not drawn),232 °C
9,CCCn1cc(C(=O)NCc2ccc(Cl)cc2)c(=O)c2cc(CN3CCOCC3)sc21,174 to 176 °C
10,COc1cc(OC)c(-c2ccc(O)c(C34CC5CC(CC(C5)C3)C4)c2)cc1C=C1SC(C2CCNC2)=NC1=O (stereo not drawn),343 to 345 °C
11,CCOC(=O)Nc1nc(C)c(-c2nc3ccccc3c(=O)n2-c2cccc(Cl)c2)s1,262 to 263 °C
12,CC1COC2(CCN(C(=O)C(Cl)Cl)CC2)O1 (stereo not drawn),115 °C
13,COc1ccc(-c2nc(N)ncc2-c2ccc(=O)[nH]n2)cc1,142 °C
14,CCOC(OCC)C(N)c1nnnn1C (stereo not drawn),99 to 101 °C
15,CCCCCCCCCCOc1ccc(-c2ccc(C#CCCC(C)O)cc2)cc1 (stereo not drawn),97 to 99 °C
16,O=S(=O)(c1ccc2ccccc2c1)N1CCCC1c1ccc(F)cc1 (racemic),166 °C
17,CCc1cc(NCc2nc3ccccc3s2)c(=O)[nH]c1C,209 to 210 °C
18,COc1ccc2nc(COc3ccc(NC(C)=O)cc3)sc2c1,145 to 147 °C
19,CC(C)(NCCCn1ccnc1)c1ccc(-c2ccc(O)cc2)cc1,178 to 180 °C
20,CC(C)(C)c1cc(-c2csc(CO)n2)cc(C(C)(C)C)c1O,126 to 127 °C
21,CC(C)(C)OC(=O)N[C@@H](CC1CCCCC1)[C@@H](O)[C@@H](O)CN=[N+]=[N-],93 to 94 °C
22,Cc1cc(-c2ccc(S(N)(=O)=O)cc2)n(-c2ccc(F)cc2)c1,126 to 127 °C
23,CC(C)CCOc1ccc2sc(C(=O)O)cc(=O)c2c1,208 to 209 °C
24,N#Cc1nc(-c2c(Cl)cc(C(F)(F)F)cc2Cl)[nH]c1C#N,194 to 195 °C
25,Cc1c(C)n(CC=CCl)c2c(OCc3ccc(F)cc3)nncc12,110 to 115 °C

row,Compound,melting point
1,CCOC(C)c1ccc(OCCOc2ncnc(NS(=O)(=O)c3ccc(C(C)(C)C)cc3)c2-c2ccc(C)cc2)cc1 (stereo not drawn),139 to 140 °C
2,CC1(C(=O)C(CC2CCCCC2)n2cncn2)COCOC1 (stereo not drawn),68 to 71 °C
3,CN1CCN(c2ccccc2CO)[C@@H]2c3ccccc3C[C@H]21 (relative stereo),166 to 167 °C
4,COc1ccc2c(c1OS(=O)(=O)C(F)(F)F)COCc1cc(OC)c(OC)c(OC)c1-2,164 °C
5,C=C=CC(C)(O)c1ccc(Br)cc1 (stereo not drawn),45 to 50 °C
6,O=C1NC(=O)C(Cc2ccc(OCc3cn4ccccc4n3)cc2)S1 (stereo not drawn),197 to 202 °C
7,C=C1OC(=NO)C(c2ccccc2)C(=O)N1C(C)(C)C(=O)Nc1cc(Cl)cc(Cl)c1 (stereo not drawn),208 to 210 °C
8,Cn1nc2cccc(O)c2c1S(N)(=O)=O,180 to 181 °C
9,COc1cc(OC)c2c(=O)[nH]c(-c3cc(C)c(OCCN4CC(NC(C)=O)C4)c(C)c3)nc2c1,112 to 114 °C
10,O=C(O)C(Cc1ccccc1)Oc1c(Br)cc(-c2c(Br)ccc3sc4ccccc4c23)cc1Br (stereo not drawn),98 to 100 °C
11,CCOCc1nc2c(N(Cc3ccccc3)Cc3ccccc3)nc(Cl)c(C)c2n1N,127 to 129 °C
12,CC(C)(C)c1cc(CCC(=O)NNC(=O)C=Cc2ccc(Cl)cc2)cc(C(C)(C)C)c1O,276 to 277 °C
13,CCN1C(=O)Cc2ccc(C(O)CCl)c(O)c21 (stereo not drawn),141 to 147 °C
14,CC(C)Oc1ncc(C#N)c(O)n1,166 °C
15,C=C1SC(=O)N(c2ccc3cc(-c4ccc(OC)c(C56CC7CC(CC(C7)C5)C6)c4)ccc3c2)C1=O,286 to 287 °C
16,Nc1ccc(NCCNS(=O)(=O)c2ccccc2)cc1,144 °C
17,CCOC(=O)c1cc(NC(=O)NCC(=O)N2[C@@H](C(=O)OC(C)(C)C)CC[C@H]2c2ccccc2)ccc1O (racemic),150 °C
18,CCN(CC)c1ccc(C2(c3c(C)n(CCOC)c4ccccc34)OC(=O)c3ccccc32)c(C)c1 (stereo not drawn),140 to 143 °C
19,CC1CN(c2c(F)cc3c(=O)c(C(=O)O)cn(C4CC4)c3c2F)CC1CN (stereo not drawn),249 to 252 °C
20,O=C(O)C1CCc2c(c3ccccc3n2C(=O)c2ccc3c(c2)OCO3)C1 (stereo not drawn),198 to 200 °C
21,Nc1cc(C(=O)O)cc(OCc2ccc(Cl)cc2)c1Cc1ccccc1,199 to 200 °C
22,O=C(O)CC[C@H](NC(=O)Oc1ccc(N(CCCl)CCCl)cc1)C(=O)O,87 to 89 °C
23,CCCCNC(=O)[C@@H](C[C@H](O)[C@H](CC1CCCCC1)NC(=O)OC(C)(C)C)C(C)C,115 to 118 °C
24,C=C1C[C@@H]2C(=O)OC(=O)[C@@H]2C1,50 to 51 °C
25,Fc1ccc2[nH]cc(CCCN3CCN(c4cccc(Cl)c4Cl)CC3)c2c1,147 to 148 °C

row,Compound,melting point
1,Cc1cc(C)c(C)c(OCC(=O)O)c1,129 to 130 °C
2,CCCCCCCc1ccc(CCCC(N)(CO)CCO)cc1 (stereo not drawn),68 to 71 °C
3,CCC1(CCCCN2CCc3sccc3C2)C(=O)Nc2ccc(Br)cc21 (stereo not drawn),149 to 151 °C
4,COc1ccc(NC(=O)c2ccc(-c3ccc(S(C)=O)cc3)c(C)c2)cc1N1CCN(C)CC1 (stereo not drawn),210 to 212 °C
5,Nc1c(Nc2cccc3cnccc23)c(=O)c1=O,215 °C
6,CC(C)C(=O)Nc1ccc(S(=O)(=O)c2ccc(F)cc2)cc1,112 to 115 °C
7,CCOC1=C(C)C(=O)C(C)(C)CC1,104 to 106 °C
8,COC(=O)[C@@H]1CC(=O)N(c2ccc(O)cc2)C1,123 °C
9,CC(=O)NC[C@H]1CN(c2ccc(N3CCC(C#N)(NNC(=O)c4cccs4)CC3)c(F)c2)C(=O)O1,226 to 230 °C
10,COc1ccc(C(=O)Nc2c(Cl)cncc2Cl)c2c1OCC2CC(=O)OCc1ccccc1 (stereo not drawn),198 to 205 °C
11,CC(=O)OCc1ccc(C#Cc2ccc3c(c2)C(C)(C)CCC3(C)C)cc1,136 to 139 °C
12,Nc1ccc(CCO)c(N)c1,67 to 72 °C
13,COc1cc2ncc(C#N)c(Nc3cccc(N(C)C)c3)c2cc1OC,246 to 249 °C
14,COc1ccc(CCc2nccn3c(Br)cc(Br)c23)cc1,75 to 76 °C
15,CC(C)C(=O)N=c1ccn(-c2ccccc2)nc1,138 °C
16,COc1cc2c(cc1OC)C(C(S)(C#N)c1ccccc1)=NCC2 (stereo not drawn),160 to 161 °C
17,CCC12CCC3c4ccc(OC)cc4CCC3C1C=CC2=O (stereo not drawn),158 to 160 °C
18,CCN(CC)C1=C2N=c3cc(Cl)ccc3=C2Oc2ccccc2N1Cc1ccccc1,132 to 134 °C
19,CCCc1nc2c(N)nc(C)c(C)c2n1CC(C)(C)NC(=O)c1ccccc1,208 to 210 °C
20,COc1ccc(CC2c3c(cc(OC)c(OC)c3O)CCN2C)cc1 (stereo not drawn),112 to 114 °C
21,O=c1c(Cc2ccccc2)c(-c2ncco2)n(-c2ccccc2)c2cc(Cl)ccc12,219 to 220 °C
22,Cc1ccsc1C(=COCCN1CCC[C@@H](C(=O)O)C1)c1sccc1C,55 to 70 °C
23,COc1ccc(Cn2cc[nH]c2=S)cc1F,156 to 157 °C
